Test results reported in patent publication US9814720B2, “Compositions and methods of inhibiting IL-17 expression of neutrophils” (priority 2014, dated 2017).

How the values were obtained:
[1] = system: human peripheral blood neutrophils; assay: ROS production (CFDA) by human peripheral blood neutrophils incubated with Aspergillus hyphae; format: cell-based; conditions: IL-6/23-stimulated, inhibitor 20 μM, FIG. 6E
Description: Murine and human neutrophils were incubated with p-STAT3 (20 μM Stattic or 20 μM INC424) or RORγt inhibitors (20 μM SR1001) for 2 h. Then the cells were stimulated with […] of rIL-6 and 2 μg/ml of rIL-23 for 3 h, washed, and 2×10^5 bone marrow-derived murine neutrophils or 10^5 human peripheral blood neutrophils, with or without recombinant IL-17A, were added to each well with growing hyphae. RPMI media was used as positive control (unimpaired growth), and PBS was used as a negative control (no growth (data not shown)). After 16 h the wells were washed with PBS and the dsRed fungal mass was quantified in a 96-well fluorometer at 550/600 nm excitation/emission filter (Synergy HT, Biotek).
In vitro ROS production measured by CFDA was previously described. Briefly, 100 μg/100 μl of A. fumigatus hyphal extract (AspHE) were incubated with 2×10^5 murine or human neutrophils. Neutrophils were treated for 1 h with 1 μM Carboxyfluorescein diacetate (H2CFDA (Sigma)), which will fluoresce following ROS oxidation. Neutrophils were collected and analyzed by flow cytometry. H2CFDA pulsed neutrophils that had not been incubated with AspHE were used to set the ROS histogram gate. The average mean intensity was calculated by Accuri flow software and graphed in Prism.

p-STAT3 = assay: STAT3 phosphorylation in IL-6/23-stimulated murine bone marrow neutrophils (flow cytometry); format: cell-based, C57BL/6 mice; conditions: inhibitor 20 μM, 1 h IL-6+IL-23, FIG. 4C
Source text: Total bone marrow-derived cells were isolated from mouse femurs and tibias by flushing with RPMI and an 18-gauge needle. Erythrocytes were lysed with 1× lysis buffer (eBioscience), and bone marrow cells were separated on a Percoll (Fisher) gradient by density centrifugation (52%, 69%, and 78%). Cells at the 69-78% interface were harvested, and neutrophil purity (>98%) confirmed by flow cytometry and Wright-Giemsa staining. Murine or human neutrophils were suspended at a density of 10^6 cells/ml and incubated with […] of recombinant mouse or human IL-6 and 2 μg/ml IL-23 in RPMI, and the cells were maintained for 1-3 h at 37° C. in 5% CO2. Various inhibitors were used for assessing STAT3 activation. […] For the determination of RORγt-dependent signaling, SR1001 (20 μM; Sigma) was used, which inhibits RORγt binding to the IL-17 promoter site. All inhibitors were added to neutrophils 2 h prior to recombinant IL-6 and IL-23 stimulation. Corneas were dissected and incubated for 1 h at 37° C. in collaganese (80 U/ml) (C0130; Sigma-Aldrich), and washed in FACS buffer (PBS+1% FBS+0.5% Sodium azide). Ten corneas were pooled and analyzed by intracellular flow cytometry. Conversely, bone marrow cells or neutrophils were collected as described above and washed in FACS buffer. […] Cells were analyzed using a C6 Accuri flow cytometer (BD). […]

IL-17A = IL-17A protein and Il17a gene expression in IL-6/23-stimulated human neutrophils; format: cell-based
Description: (§1) Neutrophils were isolated from peripheral blood of healthy donors. Peripheral blood was incubated in 3% Dextran, and neutrophils isolated by Ficoll gradient centrifugation (Fisher Scientific), with neutrophil purity determined by staining with Wright-Giemsa.
IL-17A protein production was quantified by 2-site ELISA, according to the manufacturer's directions (R&D Biosciences).
(§2) Murine or human neutrophils were suspended at a density of 10^6 cells/ml and incubated with […] of recombinant mouse or human IL-6 and 2 μg/ml IL-23 in RPMI, and the cells were maintained for 1-3 h at 37° C. in 5% CO2. Various inhibitors were used for assessing STAT3 activation. For STAT3, neutrophils were treated with either the STAT3-SH2 inhibitor, Stattic (20 μM) obtained from Tocris, or the JAK-1, 2 inhibitor, INC424, (aka Ruxolitinib; 20 μM (Selleck BioChem)). For the determination of RORγt-dependent signaling, SR1001 (20 μM; Sigma) was used, which inhibits RORγt binding to the IL-17 promoter site. All inhibitors were added to neutrophils 2 h prior to recombinant IL-6 and IL-23 stimulation.
Neutrophil and corneal cell RNA was extracted using the RNeasy mini kit according to the manufacturer's directions (Qiagen, Valencia, Calif.). […]
The SYBR green system (Applied Biosystems, Carlsbad, Calif.) was utilized for quantitative PCR (qPCR) using ABI Biosystems. […]

IL-17RC [2] = assay: IL-17RC gene expression by qPCR in IL-6/23-stimulated human neutrophils; format: cell-based; conditions: IL-6/23 1 h, FIG. 6B
Description: as §1, §2
(§3) Neutrophil and corneal cell RNA was extracted using the RNeasy mini kit according to the manufacturer's directions (Qiagen, Valencia, Calif.). The quality of RNA was checked by spectrophotometry, and only samples with a 260/280 ratio of 2.0 were used to generate cDNA. The SuperScript First Strand synthesis system (Invitrogen) was used to generate cDNA according to the manufacturer's directions.
(§4) The SYBR green system (Applied Biosystems, Carlsbad, Calif.) was utilized for quantitative PCR (qPCR) using ABI Biosystems. PCR products were then run on a 1% agarose gel, and visualized using ethidium bromide. PCR products were compared to Actb (encoding the β-actin gene) or GAPDH as the controls for gel loading.

IL-17RC [3] = assay: IL-17RC gene expression by qPCR in IL-6/23-stimulated murine neutrophils; format: cell-based; conditions: IL-6/23 1 h, FIG. 6A
Source text: Total bone marrow-derived cells were isolated from mouse femurs and tibias by flushing with RPMI and an 18-gauge needle. Erythrocytes were lysed with 1× lysis buffer (eBioscience), and bone marrow cells were separated on a Percoll (Fisher) gradient by density centrifugation (52%, 69%, and 78%). Cells at the 69-78% interface were harvested, and neutrophil purity (>98%) confirmed by flow cytometry and Wright-Giemsa staining.
as §2, §3, §4

In the case of O=[N+]([O-])c1ccc2c(c1)S(=O)(=O)C=C2 [Stattic], the ROS production ([1]; plus rhIL-17A) is reported as “increased ROS”, the ROS production ([1]; without rhIL-17A) is reported as “no increase in ROS” and the “p-STAT3 in IL-6/23 stimulated neutrophils” value (p-STAT3) is reported as “completely inhibited”. The IL-17A protein (IL-17A; FIG. 5D) was “ablated”, the Il17a gene expression (IL-17A; FIG. 5E) was “ablated” and the IL-17RC expression (IL-17RC [2]) was “did not inhibit”. For the same molecule, the IL-17RC expression (IL-17RC [3]) was “did not inhibit”.
